# Patent US9096596B2 (Janssen Pharmaceutica NV, priority 2013, dated 2015)
# Where two headings read alike, the source gives them in different places.
# Columns and labels:
# P2X7 [1] = biological target: T1, P2X7 (Homo sapiens (Human), UniProt Q99572); test: Radioligand binding, human P2X7-1321N1 cell membranes, tracer tritiated A-804598
# Experimental: (§1) On the day of the experiment, cell membrane preparations were made according to standard published methods. […] The compound can be prepared as described in the literature. […] The assay was terminated by filtration (GF/B filters pre-soaked with 0.3% PEI) and washed with washing buffer (Tris-HCl 50 mM). The IC50 generated in the binding assay was corrected for tracer concentration and affinity of the tracer to derive at the affinity (Ki) of the test compounds.
# rat P2X7 [2] = biological target: T2, rat P2X7 (Rattus norvegicus (Rat), UniProt Q64663); test: Radioligand binding, rat P2X7-1321N1 cell membranes, tracer tritiated A-804598
# T2 sequence (Q64663 whole entry): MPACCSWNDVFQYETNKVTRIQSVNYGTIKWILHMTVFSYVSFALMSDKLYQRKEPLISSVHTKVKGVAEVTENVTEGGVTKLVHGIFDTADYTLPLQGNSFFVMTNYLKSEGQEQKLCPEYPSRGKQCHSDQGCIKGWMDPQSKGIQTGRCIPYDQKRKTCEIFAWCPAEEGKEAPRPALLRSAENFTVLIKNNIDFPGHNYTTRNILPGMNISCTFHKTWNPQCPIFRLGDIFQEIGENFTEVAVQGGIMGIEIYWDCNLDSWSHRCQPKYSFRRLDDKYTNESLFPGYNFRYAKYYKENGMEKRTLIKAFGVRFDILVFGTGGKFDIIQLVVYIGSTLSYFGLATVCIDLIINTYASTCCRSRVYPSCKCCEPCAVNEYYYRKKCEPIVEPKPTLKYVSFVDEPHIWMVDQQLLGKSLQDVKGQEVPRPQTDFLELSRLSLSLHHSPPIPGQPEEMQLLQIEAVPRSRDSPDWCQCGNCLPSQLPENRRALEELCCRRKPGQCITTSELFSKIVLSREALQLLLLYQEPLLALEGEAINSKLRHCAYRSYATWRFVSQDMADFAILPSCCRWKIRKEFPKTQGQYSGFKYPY
# Experimental: as §1
# P2X7 [3] = biological target: T1, P2X7; test: Ca2+ flux (FLIPR) in 1321N1 cells expressing recombinant human P2X7 channel; assay type: cell-based; settings: 250 μM BzATP, Calcium-4 dye
# Experimental: 1321N1 cells expressing the recombinant human, rat or mouse P2X7 channel was cultured in HyQ DME/(HyClone/Dulbecco's Modified Eagle Medium) high glucose supplemented with 10% Fetal Bovine Serum (FBS) and appropriate selection marker. Cells were seeded at a density of 25000 cells/well (96-well clear bottom black walled plates) in 100 μl volume/well. On the day of the experiment, cell plates were washed with assay buffer, containing (in mM): 130 NaCl, 2 KCl, 1 CaCl2, 1 MgCl2, 10 HEPES, 5 glucose; pH 7.40 and 300 mOs. After the wash, cells were loaded with the Calcium-4 dye (Molecular Device) and incubated in the dark for 60 minutes. Test compounds were prepared at 250× the test concentration in neat DMSO. Intermediate 96-well compound plates were prepared by transferring 1.2 μL of the compound into 300 μL of assay buffer. A further 3× dilution occurred when transferring 50 μL/well of the compound plate to 100 μL/well in the cell plate. Cells were incubated with test compounds and dye for 30 minutes. […] The fluorescence change was measured 180 seconds after adding the agonist.
# rat P2X7 [4] = biological target: T2, rat P2X7; test: Ca2+ flux (FLIPR) in 1321N1 cells expressing recombinant rat P2X7 channel; assay type: cell-based; settings: 250 μM BzATP, Calcium-4 dye
# Method in brief: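 1321N1 cells stably expressing P2X7 were loaded with Calcium-4 dye for 60 min in HEPES-buffered saline (pH 7.40, 1 mM CaCl2, 1 mM MgCl2), then preincubated with test compounds for 30 min. Fluorescence change was read 180 s after agonist addition.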
# P2X7 [5] = biological target: T1, P2X7; test: P2X7 antagonism in human PBMCs (IL-1β release, ELISA); assay type: cell-based; settings: test compound 10 μM, IL-1β release in human PBMCs, LPS 30 ng/ml + Bz-ATP 0.5 mM, read-out: PBMC 10 μM (% control)
# Experimental: Human blood was collected using a blood donor program. […] Cells were incubated for an additional 1.5 hours. […] In Table 2, when the data cell has been left blank, it is intended to mean that the compound was not tested in that assay.
# [6] = human P2X7-1321N1 membranes, 1 hour at 4° C., IC50 corrected for tracer concentration and affinity
# [7] = rat P2X7-1321N1 membranes, 1 hour at 4° C., IC50 corrected for tracer concentration and affinity
# T1 sequence (Q99572 whole entry): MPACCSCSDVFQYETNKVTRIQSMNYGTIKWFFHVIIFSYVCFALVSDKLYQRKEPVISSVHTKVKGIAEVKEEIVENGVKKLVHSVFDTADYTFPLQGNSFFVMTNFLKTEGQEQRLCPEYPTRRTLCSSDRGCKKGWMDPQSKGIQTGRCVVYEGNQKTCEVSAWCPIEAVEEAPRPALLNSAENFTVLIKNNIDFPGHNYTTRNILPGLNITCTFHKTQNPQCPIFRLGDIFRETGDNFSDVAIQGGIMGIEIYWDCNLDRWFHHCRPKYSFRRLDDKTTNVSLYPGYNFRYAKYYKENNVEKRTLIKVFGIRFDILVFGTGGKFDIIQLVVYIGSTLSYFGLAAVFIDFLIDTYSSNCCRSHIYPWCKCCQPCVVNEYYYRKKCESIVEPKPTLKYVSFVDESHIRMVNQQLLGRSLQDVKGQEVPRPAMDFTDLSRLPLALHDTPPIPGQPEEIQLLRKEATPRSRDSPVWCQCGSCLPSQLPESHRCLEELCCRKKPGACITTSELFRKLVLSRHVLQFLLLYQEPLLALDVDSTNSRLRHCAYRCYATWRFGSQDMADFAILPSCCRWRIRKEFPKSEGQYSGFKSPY
SMILES,Ki (P2X7 [1]),Ki (rat P2X7 [2]),IC50 (P2X7 [3]),IC50 (rat P2X7 [4]),Ki (P2X7 [1]; [6]),Ki (rat P2X7 [2]; [7]),remaining activity at 10 µM (P2X7 [5])
"Cc1nc2c(c(-c3ccn(CCF)n3)n1)C[C@@H](C)N(C(=O)c1cccc(C(F)(F)F)c1Cl)C2 (single isomer, unassigned) [Example 124, (R*)-(2-chloro-3-(trifluoromethyl)phenyl)(4-(1-(2-fluoroethyl)-1H-pyrazol-3-yl)-2,6-dimethyl-5,6-dihydropyrido[3,4-d]pyrimidin-7(8H)-yl)methanone]",25.1 nM,3.5 nM,31 nM,12.9 nM,,,
"COCCn1ccc(-c2nc(C)nc3c2C[C@@H](C)N(C(=O)c2cccc(C(F)(F)F)c2Cl)C3)n1 (single isomer, unassigned) [Example 128, (R*)-(2-chloro-3-(trifluoromethyl)phenyl)(4-(1-(2-methoxyethyl)-1H-pyrazol-3-yl)-2,6-dimethyl-5,6-dihydropyrido[3,4-d]pyrimidin-7(8H)-yl)methanone]",31.6 nM,3 nM,29.6 nM,9.7 nM,,,
"O=C(c1cccc(Cl)c1Cl)N1CCc2c(ncnc2-c2ccccc2)C1 [Example 2, 7-[(2,3-Dichlorophenyl)carbonyl]-4-phenyl-5,6,7,8-tetrahydropyrido[3,4-d]pyrimidine]",,,36.5 nM,3240 nM,95.5 nM,251 nM,
"O=C(c1cccc(Cl)c1Cl)N1CCc2c(ncnc2-c2ccccn2)C1 [Example 11, 7-[(2,3-Dichlorophenyl)carbonyl]-4-pyridin-2-yl-5,6,7,8-tetrahydropyrido[3,4-d]pyrimidine]",,,416 nM,> 10000 nM,37.2 nM,61.7 nM,
"O=C(c1cccc(Cl)c1Cl)N1CCc2c(ncnc2-c2cnccn2)C1 [Example 14, 7-[(2,3-Dichlorophenyl)carbonyl]-4-pyrazin-2-yl-5,6,7,8-tetrahydropyrido[3,4-d]pyrimidine]",,,25.1 nM,3160 nM,63.1 nM,31.6 nM,
"Cc1c(C(=O)N2CCc3c(ncnc3-c3cnccn3)C2)cccc1C(F)(F)F [Example 15, 7-{[2-Methyl-3-(trifluoromethyl)phenyl]carbonyl}-4-pyrazin-2-yl-5,6,7,8-tetrahydropyrido[3,4-d]pyrimidine]",,,31.6 nM,6310 nM,79.4 nM,50.1 nM,
"O=C(c1cccc(C(F)(F)F)c1Cl)N1CCc2c(ncnc2-c2ccn[nH]2)C1 [Example 18, (4-(1H-pyrazol-5-yl)-5,6-dihydropyrido[3,4-d]pyrimidin-7(8H)-yl)(2-chloro-3-(trifluoromethyl)phenyl)methanone]",,,10.3 nM,76.2 nM,20 nM,5 nM,
"Cc1nc2c(c(-c3ccn[nH]3)n1)CCN(C(=O)c1cccc(Cl)c1Cl)C2 [Example 34, 7-[(2,3-Dichlorophenyl)carbonyl]-2-methyl-4-(1H-pyrazol-5-yl)-5,6,7,8-tetrahydropyrido[3,4-d]pyrimidine]",,,86.1 nM,2020 nM,63.1 nM,20 nM,
"Cc1nc2c(c(-c3[nH]ncc3F)n1)CCN(C(=O)c1cccc(Cl)c1Cl)C2 [Example 36, 7-[(2,3-Dichlorophenyl)carbonyl]-4-(4-fluoro-1H-pyrazol-5-yl)-2-methyl-5,6,7,8-tetrahydropyrido[3,4-d]pyrimidine]",,,,,79.4 nM,31.6 nM,
"CN(C)c1nc2c(c(-c3ccn[nH]3)n1)CCN(C(=O)c1cccc(C(F)(F)F)c1Cl)C2 [Example 54, 7-{[2-Chloro-3-(trifluoromethyl)phenyl]carbonyl}-N,N-dimethyl-4-(1H-pyrazol-5-yl)-5,6,7,8-tetrahydropyrido[3,4-d]pyrimidin-2-amine]",,,21 nM,556 nM,100 nM,,5%
"O=C(c1cccc(C(F)(F)F)c1Cl)N1CCc2c(nc(C3CC3)nc2-c2ccn[nH]2)C1 [Example 57, 7-{[2-Chloro-3-(trifluoromethyl)phenyl]carbonyl}-2-cyclopropyl-4-(1H-pyrazol-5-yl)-5,6,7,8-tetrahydropyrido[3,4-d]pyrimidine]",,,16.5 nM,161 nM,63.1 nM,,-9.6%
